From patent US20220195056A1, “METHOD OF TREATING KELOIDS” (Icahn School of Medicine at Mount Sinai, priority 2019, published 2022)
Entries after “also recorded” stand apart in the source; their conditions may differ.

What was measured:
Format in all cases: in vivo, human
keloid [1] = assay: Prior treatment of keloid nodules with intralesional triamcinolone injections; conditions: before dupilumab
keloids = assay: Clinical keloid response to dupilumab injections in African American keloid patients
Protocol: (A) The image depicts keloids before treatment with dupilumab in a patient. (B) The image depicts keloids in a patient after 1.5 months of treatment with dupilumab (subcutaneous injections of 300 mg every week, after 600 mg induction at baseline). (C) The image depicts keloids in the same patient at the end of the third month of treatment with dupilumab.
A subject with keloids, but without other dermatological symptoms, was treated with dupilumab. The subject received 300 mg subcutaneous dupilumab injections, administered weekly.
The inventors observed a significant keloid reduction in yet a third patient treated with dupilumab. Another patient with keloids, but no other dermatological symptoms, received weekly subcutaneous injections of dupilumab (300 mg) and observed a positive response.
In addition, only the weekly injections were sufficient to maintain the size reduction and to treat the pain and irritation associated with the keloids in the afflicted patients.

keloid [2] = assay: Clinical keloid response to dupilumab in a subject with severe atopic dermatitis and two keloid nodules
Excerpt: (A) On the right popliteal fossa, a large depigmented keloid (denoted by the dotted arrow) measured at 3.5 cm horizontal, 2.8 cm vertical, and 2.1 cm, and a smaller adjacent keloid (denoted by the bold arrow) measured at 1.2 cm horizontal, 0.7 cm vertical, and 1.1 cm, August 2018. […] Images to scale and taken with different perspectives. Th2-specific inflammatory biomarkers (C-E) measured by quantitative real-time PCR in healthy skin and keloid non-lesional (NL) and lesional (LS) skin. Black stars: significance of comparison between keloid skin and controls. Black lines within boxes represent median values; bold red lines represent mean values. Each black dot represents an individual patient; ^+P<0.1, *P<0.05.
A subject afflicted with severe atopic dermatitis (AD) (body surface area/BSA 70%; SCORing of AD/SCORAD, 50; Eczema Area and Severity Index/EASI, 33) post-inflammatory hypopigmentation, and two keloid nodules was treated with dupilumab. […] Both nodules were present for more than 2 years. […] The subject received 300 mg subcutaneous dupilumab injections for severe AD, administered every 2 weeks for a month.

[3] = after 3 months, weekly subcutaneous 300 mg
[4] = after 3 months, weekly subcutaneous 300 mg after 600 mg induction

For C[C@]12C=CC(=O)C=C1CC[C@H]1[C@@H]3C[C@@H](O)[C@](O)(C(=O)CO)[C@@]3(C)C[C@H](O)[C@@]12F [triamcinolone], which “keloid response to prior intralesional treatment” value (keloid [1]) is on record?
Its value is “minimal improvement”.

What does the source list for dupilumab?
change in keloid size (FIG. 3 patient) (keloids; 3 months, 300 mg subcutaneous every week after 600 mg induction at baseline): noticeable reduction in the keloid size; also recorded: reduction in size and depth; keloid shrinkage in diameter (FIG. 5 patient) (keloids; [3]): 0.8 cm; keloid shrinkage in height (FIG. 5 patient) (keloids; [3]): 0.5 cm; keloid shrinkage in diameter (FIG. 4 patient) (keloids; [4]): 2 cm; keloid shrinkage in height (FIG. 4 patient) (keloids; [4]): 0.5 cm; efficacy of every other week injections on keloids (keloids; injections every other week): insufficient to treat keloids; patients with reduction in keloid size and shape (keloids; weekly dupilumab injections, African American patients): three of the three; change in keloid size (third patient, FIG. 5) (keloids; weekly subcutaneous 300 mg): noticeable reduction in the keloid size; outcome of the smaller adjacent keloid (keloid [2]; after dupilumab treatment (seven months), before treatment 1.2 cm horizontal, 0.7 cm vertical, 1.1 cm): complete disappearance; larger keloid nodule size, third (unnamed) dimension, after dupilumab (keloid [2]; post-treatment, before treatment 2.1 cm): 0.9 cm; larger keloid nodule size, vertical, after dupilumab (keloid [2]; post-treatment, before treatment 2.8 cm): 1 cm; larger keloid nodule size, horizontal, after dupilumab (keloid [2]; post-treatment, before treatment 3.5 cm): 1.6 cm; reduction in size of the large keloid (keloid [2]; seven months after dupilumab treatment, 300 mg subcutaneous every 2 weeks for a month, right popliteal fossa): > 50%
